Experimental data reported in patent US8609644B2, “Amino derivatives of androstanes and androstenes as medicaments for cardiovascular disorders” (priority 2006, dated 2013).
Structures can show the parent of a compound that is named as a salt. Where two headings read alike, the source gives them in different places.

Columns and labels:
Na+, K+-ATPase = Na+, K+-ATPase (Canis lupus familiaris, UniProt P50997); assay: biochemical; design: species or system dog
anesthetized guinea-pig = assay: Inotropic effect and lethal dose, slow intravenous infusion (over 90 minutes) in anesthetized guinea-pig; conditions: for ED80 / ED (max) / Emax: Cavia porcellus, iv, 1.5 h; for ED80: read-out: ED80 (inotropic potency, dose increasing +dP/dTmax by 80%); for ED (max): read-out: EDmax (dose inducing maximum positive inotropic effect); for Emax: read-out: Emax % increase in +dP/dTmax; for Maximum dose infused: maximum dose infused in the survived animals
[1] = read-out: Na+, K+-ATPase Inhibition IC50
[2] = dog kidney enzyme, read-out: Na+, K+-ATPase Inhibition IC50

C=C1CC2C3CCC(=O)C3(C)CCC2C2(C)CCC(=NOCCCNC)CC12 (mixture of isomers) [I-ck, (E,Z) 3-(3-N-Methylaminopropoxyimino)-6-methyleneandrostane-17-one fumarate]
IC50 (Na+, K+-ATPase; Na+, K+-ATPase Inhibition IC50): 570 nM

CNCCCON=C1CCC2(C)C(CC(=O)C3C4CCC(=O)C4(C)CCC32)C1 (mixture of isomers) [I-cu, (E,Z) 3-(3-N-Methylaminopropoxyimino)androstane-7,17-dione fumarate]
IC50 (Na+, K+-ATPase; Na+, K+-ATPase Inhibition IC50): 390 nM

C=C1C[C@@H]2[C@H](CC[C@]3(C)C(=O)CC[C@@H]23)[C@@]2(C)CC[C@@H]([S@@+]([O-])CCCN)CC12 (stereo partly drawn) [I-eb, 3α-[(S)-3-Aminopropylsulfinyl]-6-methyleneandrostane-17-one fumarate]
IC50 (Na+, K+-ATPase; [1]): 7200 nM

CC(=O)N[C@H]1C[C@@H]2[C@H](CC[C@]3(C)C(=O)CC[C@@H]23)[C@@]2(C)CCC(=NOCCN)C[C@H]12 (mixture of isomers) [I-bf, (E,Z) 3-(2-Aminoethoxyimino)-6α-acetamidoandrostan-17-one hydrochloride]
IC50 (Na+, K+-ATPase; [2]): 45000 nM

C[C@]12CCC(=NOCCN)C[C@@H]1CC1(CC1)[C@@H]1[C@@H]2CC[C@]2(C)C(=O)CC[C@@H]12 (mixture of isomers) [I-cb, (E,Z) 3-(2-Aminoethoxyimino)-7-(spirocyclopropane)androstan-17-one hydrochloride]
IC50 (Na+, K+-ATPase; [2]): 130 nM

CC12CCC3C(CC(=CC#N)C4CC(=NOCCN)CCC43C)C1CCC2=O (stereo not drawn) [I-bi, (E) 3-(2-Aminoethoxyimino)-17-oxoandrostane-6-(E)-ylideneacetonitrile hydrochloride]
IC50 (Na+, K+-ATPase; Na+, K+-ATPase Inhibition IC50): 1700 nM

C=CCON=C1CC2C3CCC(=O)C3(C)CCC2C2(C)CCC(=NOCCN)CC12 (stereo not drawn) [I-ay, (E,Z)-3-(2-Aminoethoxyimino)-6-(E)-allyloxyiminoandrostan-17-one fumarate]
IC50 (Na+, K+-ATPase; [2]): 43000 nM

CNCCCOC1CCC2(C)C(C1)C(CO)CC1C3CCC(=O)C3(C)CCC12 (stereo not drawn) [I-du, 3β-(3-N-Methylaminopropoxy)-6α-hydroxymethylandrostane-17-one fumarate]
IC50 (Na+, K+-ATPase; [2]): 1100 nM

C=C1C[C@H]2[C@@H]3CCC(=O)[C@@]3(C)CC[C@@H]2[C@@]2(C)CCC(=NOCCNC)C[C@]12O (mixture of isomers) [I-cg, (E,Z) 3-(2-N-Methylaminoethoxyimino)-5α-hydroxy-6-methylenandrostan-17-one hydrochloride]
IC50 (Na+, K+-ATPase; Na+, K+-ATPase Inhibition IC50): 2600 nM

CC12CCC3C(CC(CO)C4CC(=NOCCN)CCC43C)C1CCC2=O (single isomer, unassigned) [I-aj, (E,Z) 3-(2-Aminoethoxyimino)-6β-hydroxymethylandrostan-17-one hydrochloride]
IC50 (Na+, K+-ATPase; [2]): 1600 nM

CNCCON=C1CC[C@@]2(C)C(C1)C(=NOC)C[C@@H]1[C@@H]2CC[C@]2(C)C(=O)CC[C@@H]12 (stereo partly drawn) [I-ce, (E,Z) 3-(2-N-Methylaminoethoxyimino)-6-(E)-methoxyiminoandrostan-17-one hydrochloride]
IC50 (Na+, K+-ATPase; [1]): 650 nM

CNCCCON=C1CC[C@@]2(C)C(C1)[C@@H](CO)C(=O)[C@@H]1[C@@H]2CC[C@]2(C)C(=O)CC[C@@H]12 (stereo partly drawn) [I-ei, (E,Z) 3-(3-N-Methylaminopropoxyimino)-6α-hydroxymethylandrostane-7,17-dione fumarate]
IC50 (Na+, K+-ATPase; [1]): 44 nM

C=C1C[C@@H]2[C@H](CC[C@]3(C)C(=O)CC[C@@H]23)[C@@]2(C)CC[C@@H](SCCCNC)C[C@H]12 [I-ea, 3α-(3-N-Methylaminopropylthio)-6-methyleneandrostane-17-one fumarate]
IC50 (Na+, K+-ATPase; [2]): 2800 nM

CC12CCC3C(CC(C#N)C4CC(=NOCCN)CCC43C)C1CCC2=O (mixture of isomers) [I-ac, (E,Z) 3-(2-Aminoethoxyimino)-6α-cyanoandrostan-17-one fumarate]
IC50 (Na+, K+-ATPase; [2]): 1100 nM

CC(C)(CN)ON=C1CC[C@@]2(C)C(C1)/C(=N/O)C[C@@H]1[C@@H]2CC[C@]2(C)C(=O)CC[C@@H]12 (stereo partly drawn) [I-eo, (E,Z) 3-(3-Amino-2-methyl-2-propoxyimino)-6-(E)-hydroxyiminoandrostane-17-one hydrochloride]
IC50 (Na+, K+-ATPase; [1]): 20 nM

C=C1C[C@@H]2[C@H](CC[C@]3(C)C(=O)CC[C@@H]23)[C@@]2(C)CC[C@@H](SCCCN)CC12 (stereo partly drawn) [I-dz, 3α-(3-Aminopropylthio)-6-methyleneandrostane-17-one fumarate]
IC50 (Na+, K+-ATPase; [2]): 1500 nM

CNCCCON=C1CCC2(C)C(C1)C(CO)C(O)C1C3CCC(=O)C3(C)CCC12 (mixture of isomers) [I-ek, (E,Z) 3-(3-N-Methylaminopropoxyimino)-6α-hydroxymethyl-7α-hydroxyandrostane-17-one hydrochloride]
IC50 (Na+, K+-ATPase; [2]): 320 nM

CNCCCON=C1CC[C@@]2(C)[C@H](C1)C[C@H](CO)[C@@H]1[C@@H]2CC[C@]2(C)C(=O)CC[C@@H]12 (mixture of isomers) [I-cw, (E,Z) 3-(3-N-Methylaminopropoxyimino)-7β-hydroxymethylandrostane-17-one hydrochloride]
IC50 (Na+, K+-ATPase; [2]): 2300 nM

CC(=O)NC[C@H]1C[C@@H]2[C@H](CC[C@]3(C)C(=O)CC[C@@H]23)[C@@]2(C)CCC(=NOCCN)CC12 (stereo partly drawn) [I-bm, (E,Z) 3-(2-Aminoethoxyimino)-6α-acetamidomethylandrostan-17-one hydrochloride]
IC50 (Na+, K+-ATPase; [1]): 3600 nM

CC12CCC3C(C(=C(F)F)CC4CC(=NOCCN)CCC43C)C1CCC2=O (mixture of isomers) [I-ep, (E,Z) 3-(2-Aminoethoxyimino)-7-difluoromethyleneandrostane-17-one hydrochloride]
IC50 (Na+, K+-ATPase; Na+, K+-ATPase Inhibition IC50): 87 nM

C[C@]12CC/C(=N/OCCN)CC1[C@@H](C(N)=O)C[C@@H]1[C@@H]2CC[C@]2(C)C(=O)CC[C@@H]12 (stereo partly drawn) [I-as, (Z) 3-(2-Aminoethoxyimino)-6α-carbamoylandrostan-17-one hydrochloride]
IC50 (Na+, K+-ATPase; [1]): 630 nM

COC[C@H]1C[C@@H]2[C@H](CC[C@]3(C)C(=O)CC[C@@H]23)[C@@]2(C)CC/C(=N\OCCN)CC12 (stereo partly drawn) [I-aq, (E) 3-(2-Aminoethoxyimino)-6α-methoxymethylandrostan-17-one hydrochloride]
IC50 (Na+, K+-ATPase; [2]): 500 nM

CC12CCC3C(CC(C(=O)O)C4CC(=NOCCN)CCC43C)C1CCC2=O (mixture of isomers) [I-ar, (E,Z) 3-(2-Aminoethoxyimino)-6α-carboxyandrostan-17-one hydrochloride]
IC50 (Na+, K+-ATPase; [2]): 16000 nM

CC(=O)OCC1CC2C3CCC(=O)C3(C)CCC2C2(C)CCC(=NOCCN)CC12 (stereo not drawn) [I-ap, (E,Z) 3-(2-Aminoethoxyimino)-6α-acetoxymethylandrostan-17-one fumarate]
IC50 (Na+, K+-ATPase; [2]): 3000 nM

C[C@H]1O[C@@H](O[C@H]2[C@@H](O)C[C@H](O[C@H]3[C@@H](O)C[C@H](O[C@H]4CC[C@@]5(C)[C@H](CC[C@@H]6[C@@H]5C[C@@H](O)[C@]5(C)[C@@H](C7=CC(=O)OC7)CC[C@]65O)C4)O[C@@H]3C)O[C@@H]2C)C[C@H](O)[C@@H]1O [digoxin, reference compound]
ED80 (anesthetized guinea-pig): 0.29 µmol/kg
ED (max) (anesthetized guinea-pig): 0.65 µmol/kg
Emax (anesthetized guinea-pig): 158%
Maximum dose infused (anesthetized guinea-pig): 1.16 µmol/kg

CNCCCON=C1CC[C@]2(C)[C@H]3CC[C@]4(C)C(=O)CC[C@H]4[C@@H]3C/C(=N\O)[C@@]2(O)C1 (mixture of isomers) [I-cr, (E,Z) 3-(3-N-Methylaminopropoxyimino)-5α-hydroxy-6-(E)-hydroxyiminoandrostan-17-one hydrochloride]
ED80 (anesthetized guinea-pig): 1.21 µmol/kg
ED (max) (anesthetized guinea-pig): 11.8 µmol/kg
Emax (anesthetized guinea-pig): 180%
% decrease from Emax after 20 min from the end of the infusion (anesthetized guinea-pig; duration of the inotropic effect): 47%
Maximum dose infused (anesthetized guinea-pig): 50.4 µmol/kg
